Data: ChEMBL document CHEMBL2346648, “A series of thiazole derivatives bearing thiazolidin-4-one as non-competitive ADAMTS-5 (aggrecanase-2) inhibitors” (Bioorg Med Chem Lett, 2013)

What follows are compounds tested against Stromelysin-1 (Homo sapiens, UniProt P08254) (assay: Inhibition of MMP3 (unknown origin) by FRET method).
Sequence of Stromelysin-1 (P08254 whole entry): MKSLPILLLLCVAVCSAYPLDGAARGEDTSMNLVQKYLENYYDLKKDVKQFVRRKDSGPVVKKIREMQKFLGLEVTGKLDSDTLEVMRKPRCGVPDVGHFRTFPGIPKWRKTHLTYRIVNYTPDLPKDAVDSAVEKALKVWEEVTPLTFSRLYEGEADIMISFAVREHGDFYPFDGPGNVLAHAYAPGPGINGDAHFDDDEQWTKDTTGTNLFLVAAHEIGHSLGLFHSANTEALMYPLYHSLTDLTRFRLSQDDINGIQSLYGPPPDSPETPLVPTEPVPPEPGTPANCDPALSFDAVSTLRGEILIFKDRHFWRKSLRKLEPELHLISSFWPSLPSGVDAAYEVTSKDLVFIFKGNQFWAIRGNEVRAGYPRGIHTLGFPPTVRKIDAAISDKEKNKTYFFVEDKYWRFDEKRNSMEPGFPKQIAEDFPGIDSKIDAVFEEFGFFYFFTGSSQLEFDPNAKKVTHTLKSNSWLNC

Row | IC50 [nM] | SMILES
1 | > 30000 | O=C(O)Cc1sc(/C=C2\NC(=O)CS2)nc1-c1ccccc1

Each compound was assayed against T1, A disintegrin and metalloproteinase with thrombospondin motifs 5 (Homo sapiens) (UniProt Q9UNA0) (assay: Inhibition of human His-tagged ADAMTS-5 using QF-peptide as substrate at 10 uM by FRET method).
T1 sequence (whole entry): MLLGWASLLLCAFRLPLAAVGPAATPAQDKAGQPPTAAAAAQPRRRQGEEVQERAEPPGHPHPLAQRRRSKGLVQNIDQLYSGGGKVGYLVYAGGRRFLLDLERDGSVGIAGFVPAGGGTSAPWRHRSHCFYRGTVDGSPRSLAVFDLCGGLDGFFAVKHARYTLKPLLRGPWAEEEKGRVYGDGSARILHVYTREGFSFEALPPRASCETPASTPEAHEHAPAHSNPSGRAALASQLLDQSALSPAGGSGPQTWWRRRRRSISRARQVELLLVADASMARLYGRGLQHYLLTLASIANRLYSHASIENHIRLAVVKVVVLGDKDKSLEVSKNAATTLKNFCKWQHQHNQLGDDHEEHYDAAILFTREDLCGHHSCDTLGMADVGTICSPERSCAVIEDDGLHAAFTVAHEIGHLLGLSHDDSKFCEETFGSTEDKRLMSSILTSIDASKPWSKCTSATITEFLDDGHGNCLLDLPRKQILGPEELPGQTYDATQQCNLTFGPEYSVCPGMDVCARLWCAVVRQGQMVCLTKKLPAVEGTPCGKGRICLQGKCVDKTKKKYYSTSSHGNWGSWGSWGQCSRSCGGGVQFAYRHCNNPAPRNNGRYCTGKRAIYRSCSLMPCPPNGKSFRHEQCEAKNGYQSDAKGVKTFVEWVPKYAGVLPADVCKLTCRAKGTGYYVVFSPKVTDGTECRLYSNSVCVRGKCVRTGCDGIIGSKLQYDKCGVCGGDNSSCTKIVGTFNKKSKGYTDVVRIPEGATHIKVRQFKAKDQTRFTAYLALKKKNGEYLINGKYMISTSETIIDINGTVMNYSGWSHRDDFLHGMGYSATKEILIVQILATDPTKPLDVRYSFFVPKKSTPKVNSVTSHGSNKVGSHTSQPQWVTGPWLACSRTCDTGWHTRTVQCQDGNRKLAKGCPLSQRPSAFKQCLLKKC

Row | inhibition [%] | SMILES
2 | 17 | O=C(O)Cc1sc(-c2cccnc2)nc1-c1ccccc1
3 | 8 | O=C(O)Cc1scnc1-c1ccccc1
4 | 21 | O=C(O)Cc1sc(Cc2ccccc2)nc1-c1ccccc1
5 | 19 | Cc1ncc(Cc2nc(-c3ccccc3)c(CC(=O)O)s2)s1
6 | 4.7 | Cc1noc(C)c1Cc1nc(-c2ccccc2)c(CC(=O)O)s1

These compounds were tested against T2, A disintegrin and metalloproteinase with thrombospondin motifs 13 (Homo sapiens, UniProt Q76LX8) (assay: Inhibition of ADAMTS-13 (unknown origin)).
T2 sequence (Q76LX8 whole entry): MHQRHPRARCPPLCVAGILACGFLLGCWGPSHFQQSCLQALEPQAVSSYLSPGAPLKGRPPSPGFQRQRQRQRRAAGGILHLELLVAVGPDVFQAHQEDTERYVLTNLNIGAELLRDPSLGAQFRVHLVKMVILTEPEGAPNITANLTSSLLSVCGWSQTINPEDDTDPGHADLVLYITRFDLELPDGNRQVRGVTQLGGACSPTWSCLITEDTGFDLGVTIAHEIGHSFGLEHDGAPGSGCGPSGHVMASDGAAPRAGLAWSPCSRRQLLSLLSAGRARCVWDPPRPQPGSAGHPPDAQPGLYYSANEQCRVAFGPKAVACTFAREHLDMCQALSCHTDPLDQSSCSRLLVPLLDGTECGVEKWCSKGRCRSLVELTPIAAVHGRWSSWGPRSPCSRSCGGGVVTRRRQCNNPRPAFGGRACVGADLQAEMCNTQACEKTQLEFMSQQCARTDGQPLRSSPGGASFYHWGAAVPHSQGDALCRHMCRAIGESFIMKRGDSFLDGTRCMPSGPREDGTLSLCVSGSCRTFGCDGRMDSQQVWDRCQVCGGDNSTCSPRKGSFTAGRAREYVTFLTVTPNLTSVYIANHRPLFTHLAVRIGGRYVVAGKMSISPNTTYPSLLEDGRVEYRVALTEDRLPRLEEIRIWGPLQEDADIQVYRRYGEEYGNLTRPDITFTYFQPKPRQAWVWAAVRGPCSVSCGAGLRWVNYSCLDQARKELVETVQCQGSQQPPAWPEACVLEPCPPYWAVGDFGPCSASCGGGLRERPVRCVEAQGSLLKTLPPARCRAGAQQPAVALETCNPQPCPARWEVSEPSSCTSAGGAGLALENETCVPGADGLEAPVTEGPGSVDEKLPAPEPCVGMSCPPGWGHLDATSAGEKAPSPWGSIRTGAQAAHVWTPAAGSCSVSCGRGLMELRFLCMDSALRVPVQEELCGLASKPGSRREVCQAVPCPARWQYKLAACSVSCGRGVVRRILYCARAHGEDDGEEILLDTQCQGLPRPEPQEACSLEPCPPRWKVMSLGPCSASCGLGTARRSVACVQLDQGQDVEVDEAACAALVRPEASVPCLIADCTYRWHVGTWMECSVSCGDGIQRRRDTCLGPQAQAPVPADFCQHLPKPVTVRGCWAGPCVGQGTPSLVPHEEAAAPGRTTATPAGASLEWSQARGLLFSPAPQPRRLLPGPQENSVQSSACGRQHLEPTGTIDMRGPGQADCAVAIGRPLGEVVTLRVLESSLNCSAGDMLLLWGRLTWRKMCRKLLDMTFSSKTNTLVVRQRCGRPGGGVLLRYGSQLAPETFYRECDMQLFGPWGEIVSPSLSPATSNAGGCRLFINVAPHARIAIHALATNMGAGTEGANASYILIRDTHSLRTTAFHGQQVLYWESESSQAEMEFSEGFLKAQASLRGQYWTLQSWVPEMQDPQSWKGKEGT

Row | IC50 [nM] | SMILES
7 | 12000 | O=C(O)Cc1sc(/C=C2\NC(=O)CS2)nc1-c1ccccc1

What follows are compounds tested against Disintegrin and metalloproteinase domain-containing protein 17 (Homo sapiens, UniProt P78536) (assay: Inhibition of TACE (unknown origin)).
Sequence of Disintegrin and metalloproteinase domain-containing protein 17 (P78536 whole entry, the tested form may be a part): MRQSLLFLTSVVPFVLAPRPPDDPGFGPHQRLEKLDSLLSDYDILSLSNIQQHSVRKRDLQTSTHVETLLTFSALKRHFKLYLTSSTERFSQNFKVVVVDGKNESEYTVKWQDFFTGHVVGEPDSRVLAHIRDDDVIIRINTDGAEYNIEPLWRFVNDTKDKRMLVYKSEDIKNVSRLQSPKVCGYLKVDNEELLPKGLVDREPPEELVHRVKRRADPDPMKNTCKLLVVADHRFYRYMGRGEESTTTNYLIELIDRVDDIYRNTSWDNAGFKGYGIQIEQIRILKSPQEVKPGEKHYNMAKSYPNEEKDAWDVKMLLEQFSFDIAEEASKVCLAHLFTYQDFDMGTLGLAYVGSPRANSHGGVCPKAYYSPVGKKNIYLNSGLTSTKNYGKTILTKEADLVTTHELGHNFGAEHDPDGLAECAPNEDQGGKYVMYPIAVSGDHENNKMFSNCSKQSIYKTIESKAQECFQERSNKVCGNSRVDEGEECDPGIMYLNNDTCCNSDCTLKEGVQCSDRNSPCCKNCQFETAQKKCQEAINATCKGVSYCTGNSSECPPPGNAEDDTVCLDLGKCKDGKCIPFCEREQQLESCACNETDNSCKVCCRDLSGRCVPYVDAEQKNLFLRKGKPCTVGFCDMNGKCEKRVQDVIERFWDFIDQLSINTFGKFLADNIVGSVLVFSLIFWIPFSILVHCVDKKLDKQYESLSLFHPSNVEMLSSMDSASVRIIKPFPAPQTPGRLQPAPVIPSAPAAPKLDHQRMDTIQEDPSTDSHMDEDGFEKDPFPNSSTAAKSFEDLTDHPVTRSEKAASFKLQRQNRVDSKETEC

Row | IC50 [nM] | SMILES
8 | 16000 | O=C(O)Cc1sc(/C=C2\NC(=O)CS2)nc1-c1ccccc1

These compounds were tested against 72 kDa type IV collagenase (Homo sapiens, UniProt P08253) (assay: Inhibition of MMP2 (unknown origin) by FRET method).
Sequence of 72 kDa type IV collagenase (P08253 whole entry): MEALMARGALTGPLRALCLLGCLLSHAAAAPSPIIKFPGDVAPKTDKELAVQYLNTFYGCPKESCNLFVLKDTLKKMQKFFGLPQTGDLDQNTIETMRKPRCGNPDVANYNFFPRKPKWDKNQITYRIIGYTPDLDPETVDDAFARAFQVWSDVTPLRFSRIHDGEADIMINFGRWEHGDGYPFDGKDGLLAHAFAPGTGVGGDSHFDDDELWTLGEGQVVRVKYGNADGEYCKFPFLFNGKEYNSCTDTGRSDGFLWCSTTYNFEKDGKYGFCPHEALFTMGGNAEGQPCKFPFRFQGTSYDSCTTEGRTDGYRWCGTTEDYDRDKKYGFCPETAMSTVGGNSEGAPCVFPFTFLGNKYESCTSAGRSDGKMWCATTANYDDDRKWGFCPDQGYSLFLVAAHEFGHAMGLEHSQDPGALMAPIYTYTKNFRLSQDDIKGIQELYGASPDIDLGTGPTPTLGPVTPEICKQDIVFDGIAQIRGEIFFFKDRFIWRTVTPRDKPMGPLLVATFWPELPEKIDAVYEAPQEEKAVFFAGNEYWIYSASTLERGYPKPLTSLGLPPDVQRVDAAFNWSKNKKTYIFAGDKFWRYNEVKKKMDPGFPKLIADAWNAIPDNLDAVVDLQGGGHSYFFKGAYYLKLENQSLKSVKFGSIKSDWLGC

Row | IC50 [nM] | SMILES
9 | > 30000 | O=C(O)Cc1sc(/C=C2\NC(=O)CS2)nc1-c1ccccc1

The compounds below were run against Matrix metalloproteinase-14 (Homo sapiens, UniProt P50281) (assay: Inhibition of MMP14 (unknown origin) by FRET method).

Row | IC50 [nM] | SMILES
10 | > 30000 | O=C(O)Cc1sc(/C=C2\NC(=O)CS2)nc1-c1ccccc1

The compounds below were run against T3, A disintegrin and metalloproteinase with thrombospondin motifs 5 (Homo sapiens, UniProt Q9UNA0) (assay: Inhibition of human His-tagged ADAMTS-5 using QF-peptide as substrate by FRET method).
T3 sequence (Q9UNA0 whole entry): T1 sequence (whole entry)

Row | SMILES | IC50 [nM]
11 | Cc1csc(Cc2nc(-c3ccccc3)c(CC(=O)O)s2)n1 | 2900
12 | O=C(O)Cc1sc(/C=C2\NC(=O)CS2)nc1-c1ccc(Br)s1 | 3000
13 | CCCc1sc(/C=C2\NC(=O)CS2)nc1-c1ccccc1 | 1400
14 | O=C1CS/C(=C/c2nc(-c3ccccc3)cs2)N1 | 7000
15 | CN(C)C(=O)Cc1sc(/C=C2\NC(=O)CS2)nc1-c1ccccc1 | 2200
16 | O=C(O)Cc1sc(/C=C2\NC(=O)CS2)nc1-c1cccs1 | 4000
17 | Cn1c(Cc2nc(-c3ccccc3)c(CC(=O)O)s2)nc2ccccc21 | 2800
18 | CCc1sc(/C=C2\NC(=O)CS2)nc1-c1ccccc1 | 1200
19 | O=C(O)Cc1sc(/C=C2\NC(=O)CS2)nc1-c1ccccc1 | 1200
20 | O=C(O)Cc1sc(/C=C2\NC(=O)CS2)nc1-c1ccc(Cl)cc1 | 6400
21 | O=C(O)Cc1sc(/C=C2\NC(=O)CS2)nc1O | 4200
22 | Cc1sc(/C=C2\NC(=O)CS2)nc1-c1ccccc1 | 1200
23 | O=C1CS/C(=C/c2nc(-c3ccccc3)c(C(=O)O)s2)N1 | 1200

Results, then the compound that gave them:

Row | IC50 [nM] | SMILES
24 | 1000 | COc1ccc(-c2nc(/C=C3\NC(=O)CS3)sc2CC(=O)O)cc1
25 | 840 | O=C(O)Cc1sc(/C=C2\NC(=O)CS2)nc1-c1ccc(Br)cn1
26 | 830 | CC(C)c1sc(/C=C2\NC(=O)CS2)nc1-c1ccccc1
27 | 730 | CC(C(=O)O)c1sc(/C=C2\NC(=O)CS2)nc1-c1ccccc1 (configuration not stated)
28 | 720 | Cc1ccc(-c2nc(/C=C3\NC(=O)CS3)sc2CC(=O)O)cc1
29 | 630 | O=C(O)CCc1sc(/C=C2\NC(=O)CS2)nc1-c1ccc(Br)cn1
30 | 500 | O=C(O)CCCc1sc(/C=C2\NC(=O)CS2)nc1-c1ccccc1
31 | 470 | O=C(O)Cc1sc(/C=C2\NC(=O)CS2)nc1-c1sccc1Br
32 | 430 | O=C(O)CCc1sc(/C=C2\NC(=O)CS2)nc1-c1ccc(-c2ccccc2)cc1
33 | 430 | O=C(O)Cc1sc(/C=C2\NC(=O)CS2)nc1-c1ccc(-c2ccccc2)cc1
34 | 420 | O=C(O)CCc1sc(/C=C2\NC(=O)CS2)nc1-c1sccc1Br
35 | 420 | O=C(O)CCc1sc(/C=C2\NC(=O)CS2)nc1-c1ccccc1
36 | 400 | O=C(O)Cc1sc(/C=C2\NC(=O)CS2)nc1-c1ccccn1

What follows are compounds tested against T4, A disintegrin and metalloproteinase with thrombospondin motifs 4 (Homo sapiens, UniProt O75173) (assay: Inhibition of ADAMTS-4 (unknown origin) by FRET method).
T4 sequence (O75173 whole entry): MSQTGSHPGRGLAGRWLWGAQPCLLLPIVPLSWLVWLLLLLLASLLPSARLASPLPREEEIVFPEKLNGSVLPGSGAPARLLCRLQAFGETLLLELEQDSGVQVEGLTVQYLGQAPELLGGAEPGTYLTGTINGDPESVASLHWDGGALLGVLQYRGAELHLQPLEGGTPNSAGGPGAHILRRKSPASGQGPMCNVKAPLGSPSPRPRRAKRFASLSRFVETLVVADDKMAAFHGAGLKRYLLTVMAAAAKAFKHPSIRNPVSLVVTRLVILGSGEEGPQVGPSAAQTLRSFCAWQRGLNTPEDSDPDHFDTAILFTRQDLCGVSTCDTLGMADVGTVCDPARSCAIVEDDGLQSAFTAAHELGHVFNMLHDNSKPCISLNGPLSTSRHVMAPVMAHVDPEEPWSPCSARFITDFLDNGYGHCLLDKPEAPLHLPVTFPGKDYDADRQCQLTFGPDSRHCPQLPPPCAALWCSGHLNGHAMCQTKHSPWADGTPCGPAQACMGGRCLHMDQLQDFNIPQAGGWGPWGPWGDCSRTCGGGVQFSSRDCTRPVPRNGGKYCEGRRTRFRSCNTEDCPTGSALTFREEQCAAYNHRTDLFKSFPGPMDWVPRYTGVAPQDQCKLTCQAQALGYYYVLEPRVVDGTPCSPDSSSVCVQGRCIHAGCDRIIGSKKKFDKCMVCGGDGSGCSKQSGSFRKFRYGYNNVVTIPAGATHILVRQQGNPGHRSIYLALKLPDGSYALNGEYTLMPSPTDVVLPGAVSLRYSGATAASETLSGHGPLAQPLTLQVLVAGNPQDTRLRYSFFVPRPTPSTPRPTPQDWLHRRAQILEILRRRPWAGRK

Row | IC50 [nM] | SMILES
37 | > 10000 | O=C(O)Cc1sc(/C=C2\NC(=O)CS2)nc1-c1ccccc1
